Source: publication PMC10648927, “Examining the activity of cefepime-taniborbactam against Burkholderia cepacia complex and Burkholderia gladioli isolated from cystic fibrosis patients in the United States” (Antimicrobial Agents and Chemotherapy, 2023)
Values after ≈ are worked out from the molar mass of the structure shown.

Experiments:
Set-up in all cases: agar dilution MIC, growth inhibition of clinical Burkholderia isolates
[1] = system: T1, B. cenocepacia AU9512; assay: microbe, parasite or virus in culture; conditions: Burkholderia cenocepacia, AU9512
T1 construct: AU9512
Excerpt: (§1) We evaluated the activity of cefepime-taniborbactam against a panel of 140 Bcc clinical isolates (i.e., species ambifaria, arboris, cenocepacia, cepacia, contaminans, diffusa, dolosa, multivorans, pseudomultivorans, pyrrocinia, seminalis, stabilis, ubonensis, and vietnamiensis) and 10 B. gladioli from the Burkholderia cepacia Research Laboratory and Repository (University of Michigan) ([22], [25], [31]) (Supplementary Material, Tables S1 and S2). K. pneumoniae ATCC 700603 carrying bla SHV-18 and K. pneumoniae ATCC BAA-1705 harboring bla KPC strains were used as controls for β-lactam and β-lactamase inhibitor integrity; all controls tested within the anticipated quality control ranges (Table S3). Minimum inhibitory concentration (MIC) results were interpreted using Clinical Laboratory Standards Institute (CLSI) breakpoints, where available ([32]). […] An alternative cefepime-taniborbactam provisional susceptible breakpoint of ≤16 µg/mL is supported by in vivo efficacy data from neutropenic murine infection models (thigh, complicated urinary tract, and lung) ([15] [–] [17]) and data from safety and pharmacokinetics studies in human volunteers ([33], [34]). The cefepime-taniborbactam antimicrobial activity was compared to cefepime, meropenem, meropenem-vaborbactam, and levofloxacin, to data published for first-line agents (e.g., ceftazidime and trimethoprim-sulfamethoxazole) and to those recommended by the CLSI for clinical testing (e.g., minocycline) against the Bcc and B. gladioli panel ([22], [32]). Of note, the MICs of all these agents were determined by the agar dilution method, which alongside broth microdilution, are recommended by the CLSI to assess the antimicrobial susceptibility of Bcc isolates ([32]).

[2] = system: T2, B. stabilis AU10235; assay: microbe, parasite or virus in culture; conditions: Burkholderia stabilis, AU10235
T2 construct: AU10235
Excerpt: as §1

[3] = system: T3, B. gladioli AU30473; assay: organism not typed
T3 construct: AU30473
Excerpt: as §1

[4] = system: T4, B. cenocepacia AU13262; assay: microbe, parasite or virus in culture; conditions: Burkholderia cenocepacia, AU13262
T4 construct: AU13262
Excerpt: as §1

[5] = system: T5, B. contaminans AU2244; assay: organism not typed
T5 construct: AU2244
Excerpt: as §1

[6] = system: T6, B. vietnamiensis AU10214; assay: microbe, parasite or virus in culture; conditions: Burkholderia vietnamiensis, AU10214
T6 construct: AU10214
Excerpt: as §1

[7] = system: T7, B. cepacia AU19265; assay: microbe, parasite or virus in culture; conditions: Burkholderia cepacia, AU19265
T7 construct: AU19265
Excerpt: as §1

[8] = system: T8, B. gladioli AU0032; assay: organism not typed
T8 construct: AU0032
Excerpt: as §1

[9] = system: T9, B. cenocepacia AU12265; assay: microbe, parasite or virus in culture; conditions: Burkholderia cenocepacia, AU12265
T9 construct: AU12265
Excerpt: as §1

[10] = system: T10, B. multivorans AU12481; assay: microbe, parasite or virus in culture; conditions: Burkholderia multivorans, AU12481
T10 construct: AU12481
Excerpt: as §1

[11] = system: T11, Burkholderia cepacia complex Bcc Indeterminate AU9162; assay: microbe, parasite or virus in culture; conditions: Burkholderia cepacia
T11 construct: AU9162
Excerpt: as §1

[12] = system: T12, B. arboris AU14372; assay: organism not typed
T12 construct: AU14372
Excerpt: as §1

[13] = system: T13, B. dolosa AU9336; assay: microbe, parasite or virus in culture; conditions: Burkholderia dolosa, AU9336
T13 construct: AU9336
Excerpt: as §1

[14] = system: T14, B. multivorans AU18096; assay: microbe, parasite or virus in culture; conditions: Burkholderia multivorans, AU18096
T14 construct: AU18096
Excerpt: as §1

[15] = system: T15, B. multivorans AU14328; assay: microbe, parasite or virus in culture; conditions: Burkholderia multivorans, AU14328
T15 construct: AU14328
Excerpt: as §1

[16] = system: T16, B. cenocepacia AU6550; assay: microbe, parasite or virus in culture; conditions: Burkholderia cenocepacia, AU6550
T16 construct: AU6550
Excerpt: as §1

[17] = system: T17, Burkholderia cepacia complex Bcc Indeterminate AU19076; assay: microbe, parasite or virus in culture; conditions: Burkholderia cepacia
T17 construct: AU19076
Excerpt: as §1

[18] = system: T18, B. multivorans AU19518; assay: microbe, parasite or virus in culture; conditions: Burkholderia multivorans, AU19518
T18 construct: AU19518
Excerpt: as §1

[19] = system: T19, B. cenocepacia AU19276; assay: microbe, parasite or virus in culture; conditions: Burkholderia cenocepacia, AU19276
T19 construct: AU19276
Excerpt: as §1

[20] = system: T20, B. gladioli AU28659; assay: organism not typed
T20 construct: AU28659
Excerpt: as §1

[21] = system: T21, B. cenocepacia AU17796; assay: microbe, parasite or virus in culture; conditions: Burkholderia cenocepacia, AU17796
T21 construct: AU17796
Excerpt: as §1

[22] = system: T22, B. ambifaria AU5203; assay: microbe, parasite or virus in culture; conditions: Burkholderia ambifaria, AU5203
T22 construct: AU5203
Excerpt: as §1

[23] = system: T23, B. multivorans AU19564; assay: microbe, parasite or virus in culture; conditions: Burkholderia multivorans, AU19564
T23 construct: AU19564
Excerpt: as §1

Row | Structure (SMILES) | MIC [1] [µg/mL] | MIC [2] [µg/mL] | MIC [3] [µg/mL] | MIC [4] [µg/mL] | MIC [5] [µg/mL] | MIC [6] [µg/mL] | MIC [7] [µg/mL] | MIC [8] [µg/mL] | MIC [9] [µg/mL] | MIC [10] [µg/mL] | MIC [11] [µg/mL] | MIC [12] [µg/mL] | MIC [13] [µg/mL] | MIC [14] [µg/mL] | MIC [15] [µg/mL] | MIC [16] [µg/mL] | MIC [17] [µg/mL] | MIC [18] [µg/mL] | MIC [19] [µg/mL] | MIC [20] [µg/mL] | further results
1 | CO/N=C(\C(=O)N[C@@H]1C(=O)N2C(C(=O)[O-])=C(C[N+]3(C)CCCC3)CS[C@H]12)c1csc(N)n1 [cefepime] | 32 (≈ 66.6 µM) | > 32 | 32 (≈ 66.6 µM) | > 32 | 16 (≈ 33.3 µM) | 8 (≈ 16.6 µM) | 32 (≈ 66.6 µM) | > 32 | 16 (≈ 33.3 µM) | 2 (≈ 4.16 µM) | 32 (≈ 66.6 µM) | > 32 | > 32 | 2 (≈ 4.16 µM) | 8 (≈ 16.6 µM) | 32 (≈ 66.6 µM) | 16 (≈ 33.3 µM) | 32 (≈ 66.6 µM) | 8 (≈ 16.6 µM) | 32 (≈ 66.6 µM) | MIC [21]: 16 µg/mL (≈ 33.3 µM); MIC [22]: 16 µg/mL (≈ 33.3 µM); MIC [23]: 16 µg/mL (≈ 33.3 µM)
2 | C[C@H]1COc2c(N3CCN(C)CC3)c(F)cc3c(=O)c(C(=O)O)cn1c23 [levofloxacin] | 16 (≈ 44.3 µM) | 16 (≈ 44.3 µM) | 2 (≈ 5.53 µM) | 4 (≈ 11.1 µM) | 4 (≈ 11.1 µM) | 8 (≈ 22.1 µM) | 4 (≈ 11.1 µM) | 8 (≈ 22.1 µM) | 4 (≈ 11.1 µM) | 4 (≈ 11.1 µM) | 1 (≈ 2.77 µM) | 8 (≈ 22.1 µM) | 32 (≈ 88.6 µM) | 4 (≈ 11.1 µM) | 2 (≈ 5.53 µM) | 8 (≈ 22.1 µM) | 4 (≈ 11.1 µM) | 32 (≈ 88.6 µM) | 0.5 (≈ 1.38 µM) | 2 (≈ 5.53 µM) | MIC [21]: 8 µg/mL (≈ 22.1 µM); MIC [22]: > 32 µg/mL; MIC [23]: 8 µg/mL (≈ 22.1 µM)
3 | C[C@@H](O)[C@H]1C(=O)N2C(C(=O)O)=C(S[C@@H]3CN[C@H](C(=O)N(C)C)C3)[C@H](C)[C@H]12 [meropenem] | 4 (≈ 10.4 µM) | 16 (≈ 41.7 µM) | 4 (≈ 10.4 µM) | 4 (≈ 10.4 µM) | 4 (≈ 10.4 µM) | 0.5 (≈ 1.3 µM) | 4 (≈ 10.4 µM) | 2 (≈ 5.22 µM) | 4 (≈ 10.4 µM) | 2 (≈ 5.22 µM) | 4 (≈ 10.4 µM) | 16 (≈ 41.7 µM) | 8 (≈ 20.9 µM) | 1 (≈ 2.61 µM) | 4 (≈ 10.4 µM) | 8 (≈ 20.9 µM) | 4 (≈ 10.4 µM) | 16 (≈ 41.7 µM) | 2 (≈ 5.22 µM) | 2 (≈ 5.22 µM) | MIC [21]: 4 µg/mL (≈ 10.4 µM); MIC [22]: 4 µg/mL (≈ 10.4 µM); MIC [23]: 4 µg/mL (≈ 10.4 µM)
